The source made the active and inactive calls.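 How the source made its calls: active means compound that lowers ATP signal in parent HT1080 cells at potency within fivefold of its primary screen potency; inactive means the rest.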
Tested on: HT1080 viability, ATPLite luminescence, overnight
Test: HT1080 parental cell cytotoxicity, SAR follow-up, cytotoxicity control for MT1-MMP activation inhibitor project, ATPLite luminescence (AID 652267)

Row | SMILES | IC50
1 | O=Nc1c(-c2c(O)[nH]c3cc(Br)ccc23)[nH]c2ccccc12 | 36.9 µM (inactive)
2 | CCn1c(=O)c(=O)[nH]c2cc(C(=O)NC3CCCc4ccccc43)ccc21 (stereo unspecified) | 15.5 µM
3 | CN1/C(=C\C(=O)c2cncc(Br)c2)C(C)(C)c2ccccc21 | > 80 µM (inactive)
4 | COc1ccc(C)cc1Nc1nc(-c2c(C)[nH]c3ccccc23)cs1 | > 80 µM (inactive)
5 | CN1/C(=C/C=C/c2n(C)c3cc([N+](=O)[O-])c([N+](=O)[O-])cc3[n+]2C)C(C)(C)c2ccccc21 | 40.2 µM (inactive)
6 | Cc1c(C(=O)OCC(=O)NCC2CCCO2)oc2ccccc12 (stereo unspecified) | 30.3 µM (inactive)

Reference: PubChem BioAssay AID652267 (Sanford-Burnham Center for Chemical Genomics, 2013)
